Experiment [1] relates to UACC-812 (Breast Carcinoma). As to the kind of experiment: Bliss excess, mean over the matrix (fraction); higher = more synergy. In short, it runs like this: (§1)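 After 24 hours at 37°C and 5% CO2 in 1536-well plates, cells in DMEM/F12 or RPMI plus 10% FBS received two-drug dose matrices for 72 hours. Viability came from CellTiter-Glo 2.0 luminescence and was scaled as inhibition, anchored at 0 by vehicle wells and at 1 by blank wells. Combination Emax is taken as the second-highest inhibition in the matrix, and Bliss excess as the observed combination effect less EA + EB − EA·EB, with EA and EB the single-agent effects.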

Experiment [2] has as its system KYSE-220 (Esophageal Squamous Cell Carcinoma). Described as above. The method in brief:
as §1

In experiment [3] the test system is NCI-H1703 (Squamous Cell Lung Carcinoma). The description is as above. In short, it runs like this: as §1
The subject of experiment [4] is NCI-H441 (Lung Adenocarcinoma). The experiment is described as above. The method in brief:
as §1

In a further experiment the test system is WM1552C (Melanoma). The experiment is described as above. In short, it runs like this:
as §1

Experiment [5] deals with 22RV1 (Prostate Carcinoma). The experiment is described as above. The method in brief:
as §1

Experiment [6] concerns NCI-H1651 (Lung Adenocarcinoma). The description is as above. The method in brief: as §1
For experiment [7], the system named is MHH-ES-1 (Ewing's Sarcoma). Described as above. The method in brief:
as §1

In experiment [8] the test system is SW620 (Colorectal Carcinoma). The experiment is described as above. In short, it runs like this: as §1
Experiment [9] has as its system HCC70 (Breast Carcinoma). Described as above. The method in brief: as §1
A further experiment relates to PEO1 (Ovarian Carcinoma). The experiment is described as above. In short, it runs like this:
as §1

Experiment [10] has as its system JHU-022 (Oral Cavity Carcinoma). The description is as above. In short, it runs like this:
as §1

Another experiment deals with EB2 (Burkitt's Lymphoma). The experiment is described as above. In short, it runs like this: as §1
In experiment [11] the test system is HCC1395 (Breast Carcinoma). The description is as above. The method in brief:
as §1

Experiment [12] has as its system JHH-2 (Hepatocellular Carcinoma). The description is as above. The method in brief:
as §1

Experiment [13] has as its system NCI-H2087 (Lung Adenocarcinoma). Described as above. In short, it runs like this: as §1
The next experiment relates to EW-7 (Ewing's Sarcoma). The description is as above. The method in brief:
as §1

For experiment [14], the system named is KYSE-220 (Esophageal Squamous Cell Carcinoma). Description: combination Emax (second highest fraction inhibited in the dose matrix, 72 h); higher = more inhibition; extreme values may be limits of the assay. In short, it runs like this:
as §1

Experiment [15] deals with 22RV1 (Prostate Carcinoma). The description is as above. In short, it runs like this: as §1
Experiment [16] has as its system HCC70 (Breast Carcinoma). The description is as above. The method in brief: as §1

The structures appear in SMILES notation.
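For Bliss excess, mean over the matrix in this document: after 72 h of two-drug dosing.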

In the case of `C[C@@H](c1ccc2nccn2c1)n1nnc2ncc(-c3cnn(C)c3)nc21` [Savolitinib] + CC1(C)CCC(CN2CCN(c3ccc(C(=O)NS(=O)(=O)c4ccc(NCC5CCOCC5)c([N+](=O)[O-])c4)c(Oc4cnc5[nH]ccc5c4)c3)CC2)=C(c2ccc(Cl)cc2)C1 [Venetoclax] (first compound max 1 µM, 7x7, partner max 1 µM), the Bliss excess in [1] was -0.043; in experiment [2], -0.0573; in experiment [3], -0.015; in experiment [4] it was -0.029; in the experiment with WM1552C (Melanoma), -0.0623; in experiment [5], -0.0952. In addition, the Bliss excess is -0.0356 in experiment [6]; -0.031 in [7]; -0.0727 in [8]; -0.0361 with HCC70 (Breast Carcinoma) [9]; -0.0441 in the experiment on PEO1 (Ovarian Carcinoma); -0.0621 in experiment [10]. For the same compound, the Bliss excess with EB2 (Burkitt's Lymphoma) was -0.0391; in experiment [11], -0.0095; in experiment [12] it was -0.0705; in experiment [13], -0.0716; in the experiment with EW-7 (Ewing's Sarcoma), -0.0242. Also, the “combination Emax” value was 0.146 in experiment [14], 0.214 in experiment [15] and 0.165 with HCC70 (Breast Carcinoma) [16].
With `C[C@@H](c1ccc2nccn2c1)n1nnc2ncc(-c3cnn(C)c3)nc21` [Savolitinib] + Cc1c2c(nn1C)CSCc1cc(n(C)n1)CSc1cc(c3ccccc3c1)OCCCc1c(C(=O)O)n(C)c3c-2c(Cl)ccc13 [AZD5991] (first compound max 1 µM, 7x7, partner max 1 µM), the Bliss excess in experiment [1] was 0.0174; in experiment [2] it was -0.025; in [3], -0.0063; in [4], -0.0416; in the experiment with WM1552C (Melanoma), -0.079; in experiment [5], -0.0204. The Bliss excess in experiment [6] was -0.0358; in experiment [7], -0.0486; in [8] it was -0.0537; in the experiment with HCC70 (Breast Carcinoma) [9], -0.0312; in the experiment on PEO1 (Ovarian Carcinoma), -0.0397; in [10], -0.0742. The Bliss excess is -0.0501 in the experiment on EB2 (Burkitt's Lymphoma); -0.0699 in experiment [11]; -0.0228 in experiment [12]; 0.0097 in [13]; -0.0336 in the experiment on EW-7 (Ewing's Sarcoma). Further, the “combination Emax” value in [14] was 0.164; in experiment [15], 0.34; in the experiment with HCC70 (Breast Carcinoma) [16], 0.844.
